Consider 35 compounds from patent US20250084074A1, “SUBSTITUTED HETEROCYCLES AS HSET INHIBITORS” (MERCK PATENT GMBH, priority 2022, published 2025).

pIC50: −log10 of the molar value. Where a name gives a salt, the structure may show the parent alone.

By pIC50 is commonly meant the IC50 on a negative log10 scale, so that one unit is a factor of ten.

Chain of HSET full length protein (Q9BW19 whole entry): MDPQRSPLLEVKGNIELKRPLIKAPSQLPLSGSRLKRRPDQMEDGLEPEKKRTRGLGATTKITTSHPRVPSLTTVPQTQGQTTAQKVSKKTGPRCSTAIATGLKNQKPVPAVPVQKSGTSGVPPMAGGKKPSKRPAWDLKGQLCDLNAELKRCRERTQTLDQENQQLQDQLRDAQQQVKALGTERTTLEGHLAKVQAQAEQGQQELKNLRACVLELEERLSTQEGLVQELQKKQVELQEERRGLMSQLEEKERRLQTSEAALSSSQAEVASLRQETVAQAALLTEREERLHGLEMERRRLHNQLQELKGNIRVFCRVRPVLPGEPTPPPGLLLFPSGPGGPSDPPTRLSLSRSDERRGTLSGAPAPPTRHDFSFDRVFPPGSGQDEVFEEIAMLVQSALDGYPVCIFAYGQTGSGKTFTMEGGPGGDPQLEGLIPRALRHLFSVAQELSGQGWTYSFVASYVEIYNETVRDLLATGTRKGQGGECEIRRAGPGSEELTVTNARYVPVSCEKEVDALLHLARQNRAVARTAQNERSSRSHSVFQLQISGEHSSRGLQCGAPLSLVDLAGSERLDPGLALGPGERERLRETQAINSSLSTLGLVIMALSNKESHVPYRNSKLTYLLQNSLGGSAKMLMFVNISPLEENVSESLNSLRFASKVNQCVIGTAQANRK

The experiment concerns the target HSET full length protein (Homo sapiens (Human), UniProt Q9BW19). Kind of experiment: HSET ADP-Glo Assay S - 3 μM ATP. Particulars: 5 nM HSET, 70 μg/mL microtubule, 80 min at rt, read-out: COMBINED HSET ADP GLO IC50. Type of experiment: biochemical. The gist of the method:
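Full-length human HSET (5 nM) with paclitaxel-stabilised bovine brain microtubules (70 μg/mL) in HEPES pH 6.8 buffer was preincubated 10 min with compound. ATP at 3 μM started the reaction, which ran 80 min at rt. ADP formed was measured by ADP-Glo luminescence.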
For orientation: In ADP-Glo the light output rises with the ADP produced.
Consider `Cc1nc(-c2ccc3ncnc(N[C@H]4C[C@@H](C(=O)Nc5nc(C)c(C(=O)OC(C)(C)C)s5)C4)c3c2)no1` [Example 48, tert-Butyl 4-methyl-2-((1 s,3s)-3-((6-(5-methyl-1,2,4-oxadiazol-3-yl)quinazolin-4-yl)amino)cyclobutane-1-carboxamido)thiazole-5-carboxylate], for which the negative logarithm of the IC50 (pIC50) is 7.17.
For `Cc1nc(-c2ccc3ncnc(N[C@H]4C[C@@H](C(=O)N(C)c5nc(C)c(C(=O)OC(C)(C)C)s5)C4)c3c2)no1` [Example 49, tert-Butyl 4-methyl-2-((1 s,3s)-N-methyl-3-((6-(5-methyl-1,2,4-oxadiazol-3-yl)quinazolin-4-yl)amino)cyclobutane-1-carboxamido)thiazole-5-carboxylate formate], the negative logarithm of the IC50 (pIC50) is 7.23.
Then `Cc1nc(-c2ccc3ccnc(NCCC(=O)Nc4nc(C)c(C5(C(F)(F)F)CC5)s4)c3c2)no1` [Example 52], with 6.82.
Then `CCCOC(=O)c1sc(NC(=O)CCNc2nccc3ccc(-c4noc(C)n4)cc23)nc1C` [Example 54, Propyl 4-methyl-2-(3-((7-(5-methyl-1,2,4-oxadiazol-3-yl)isoquinolin-1-yl)amino)propanamido)thiazole-5-carboxylate], with 8.52; and `Cc1nc(-c2ccc3ccnc(NCCC(=O)Nc4ncc(C#N)s4)c3c2)no1` [Example 55], with 5.95.
Then `Cc1nc(-c2ccc3ccnc(NCCC(=O)Nc4cc(C(F)(F)F)n(C)n4)c3c2)no1` [Example 56, 3-((7-(5-methyl-1,2,4-oxadiazol-3-yl)isoquinolin-1-yl)amino)-N-(1-methyl-5-(trifluoromethyl)-1 H-pyrazol-3-yl)propenamide], with 5.90; and `CCCCCc1cc(NC(=O)CCNc2nccc3ccc(-c4noc(C)n4)cc23)nn1C` [Example 57, 3-((7-(5-methyl-1,2,4-oxadiazol-3-yl)isoquinolin-1-yl)amino)-N-(1-methyl-5-pentyl-1 H-pyrazol-3-yl)propanamide], with 6.78.
Consider `Cc1nnn(-c2cccc(C(=O)NCCC(=O)Nc3nc(C)c(C(C)(C)C)s3)c2)n1` [Example 59, N-(3-((5-(tert-butyl)-4-methylthiazol-2-yl)amino)-3-oxopropyl)-3-(5-methyl-2H-tetrazol-2-yl)benzamide], for which the pIC50 is 6.56.
Then `CNCCC[C@@H](CC(=O)Nc1nc(C)c(C(C)(C)C)s1)NC(=O)c1cccc(-n2nnc(C)n2)c1` [Example 60, (S)-N-(1-((5-(tert-butyl)-4-methylthiazol-2-yl)amino)-6-(methylamino)-1-oxohexan-3-yl)-3-(5-methyl-2H-tetrazol-2-yl)benzamide], with 7.27; and `CCOC(=O)c1cnc(NC(=O)CCNC(=O)c2cccc(-c3noc(C)n3)c2)s1` [Example 61, Ethyl 2-(3-(3-(5-methyl-1,2,4-oxadiazol-3-yl)benzamido)propanamido)-thiazole-5-carboxylate], with 6.09.
Regarding `COC(=O)c1sc(NC(=O)CCNC(=O)c2cccc(-c3noc(C)n3)c2)nc1C` [Example 62, Methyl 4-methyl-2-(3-(3-(5-methyl-1,2,4-oxadiazol-3-yl)benzamido)propanamido)thiazole-5-carboxylate], the pIC50 is 5.92.
Under `CCCOC(=O)c1sc(NC(=O)CCNC(=O)c2cccc(-c3noc(C)n3)c2)nc1C` [Example 63, Propyl 4-methyl-2-(3-(3-(5-methyl-1,2,4-oxadiazol-3-yl)benzamido)propanamido)thiazole-5-carboxylate] stands 7.96.
Take `CCCCc1sc(NC(=O)CCNC(=O)c2cccc(-c3noc(C)n3)c2)nc1C` [Example 64, N-(3-((5-butyl-4-methylthiazol-2-yl)amino)-3-oxopropyl)-3-(5-methyl-1,2,4-oxadiazol-3-yl)benzamide]: the negative-log IC50 (pIC50) is 6.46.
Under `CCOC(=O)c1sc(NC(=O)CC(C)(C)NC(=O)c2cccc(-c3noc(C)n3)c2)nc1C` [Example 65, Ethyl 4-methyl-2-(3-methyl-3-(3-(5-methyl-1,2,4-oxadiazol-3-yl)benzamido)butanamido)thiazole-5-carboxylate] stands 5.39; under `Cc1nc(-c2cccc(C(=O)NCCC(=O)Nc3nc(C)c(C(=O)OC(C)C)s3)c2)no1` [Example 66, Isopropyl 4-methyl-2-(3-(3-(5-methyl-1,2,4-oxadiazol-3-yl)benzamido)propanamido)thiazole-5-carboxylate], 7.40.
`COCCOC(=O)c1sc(NC(=O)CCNC(=O)c2cccc(-c3noc(C)n3)c2)nc1C` [Example 67, 2-Methoxyethyl 4-methyl-2-(3-(3-(5-methyl-1,2,4-oxadiazol-3-yl)benzamido)propanamido)thiazole-5-carboxylate]: the negative-log IC50 (pIC50) is 6.38.
Under `Cc1nc(-c2cccc(C(=O)NCCC(=O)Nc3nc(C)c(C(=O)OCC(C)C)s3)c2)no1` [Example 68, Isobutyl 4-methyl-2-(3-(3-(5-methyl-1,2,4-oxadiazol-3-yl)benzamido)propanamido)thiazole-5-carboxylate] stands 7.48; under `COCCCCOC(=O)c1sc(NC(=O)CCNC(=O)c2cccc(-c3noc(C)n3)c2)nc1C` [Example 69, 4-Methoxybutyl 4-methyl-2-(3-(3-(5-methyl-1,2,4-oxadiazol-3-yl)benzamido)propanamido)thiazole-5-carboxylate], 7.30; under `CCCOC(=O)c1sc(C(=O)NCCNc2nccc3ccc(-c4noc(C)n4)cc23)nc1C` [Example 70, Propyl 4-methyl-2-((2-((7-(5-methyl-1,2,4-oxadiazol-3-yl)isoquinolin-1-yl)amino)ethyl)carbamoyl)thiazole-5-carboxylate], 7.96.
Then `CCOC(=O)c1cc(C(=O)NCCNc2nccc3ccc(-c4noc(C)n4)cc23)nn1C` [Example 71, Ethyl 1-methyl-3-((2-((7-(5-methyl-1,2,4-oxadiazol-3-yl)isoquinolin-1-yl)amino)ethyl)carbamoyl)-1 H-pyrazole-5-carboxylate], with 4.96; and `CCCOC(=O)c1cc(C(=O)NCCNc2nccc3ccc(-c4noc(C)n4)cc23)nn1C` [Example 72, Propyl 1-methyl-3-((2-((7-(5-methyl-1,2,4-oxadiazol-3-yl)isoquinolin-1-yl)amino)ethyl)carbamoyl)-1 H-pyrazole-5-carboxylate], with 5.37.
Under `CCCNC(=O)c1cc(NC(=O)CCNc2nccc3ccc(-c4noc(C)n4)cc23)nn1C` [Example 73, 1-Methyl-3-(3-((7-(5-methyl-1,2,4-oxadiazol-3-yl)isoquinolin-1-yl)amino)propanamido)-N-propyl-1 H-pyrazole-5-carboxamide] stands 5.41.
Take `CCCOC(=O)c1sc(C(=O)N(C)CCNc2nccc3ccc(-c4noc(C)n4)cc23)nc1C` [Example 74, Propyl 4-methyl-2-(methyl(2-((7-(5-methyl-1,2,4-oxadiazol-3-yl)isoquinolin-1-yl)amino)ethyl)carbamoyl)thiazole-5-carboxylate]: the pIC50 is 6.57.
Then `CCc1cc(NC(=O)CCNc2nccc3ccc(-c4noc(C)n4)cc23)nn1C` [Example 76], with 5.08; and `Cc1nc(-c2ccc3ccnc(NCCC(=O)Nc4cc(C(C)(C)C)on4)c3c2)no1` [Example 77, N-(5-(tert-butyl)isoxazol-3-yl)-3-((7-(5-methyl-1,2,4-oxadiazol-3-yl)isoquinolin-1-yl)amino)propenamide], with 6.25; and `Cc1nc(-c2ccc3ccnc(NCCC(=O)Nc4cc(C5CC5)on4)c3c2)no1` [Example 78], with 5.82.
Then `CCc1cc(NC(=O)CCNc2nccc3ccc(-c4noc(C)n4)cc23)no1` [Example 79, N-(5-ethylisoxazol-3-yl)-3-((7-(5-methyl-1,2,4-oxadiazol-3-yl)isoquinolin-1-yl)amino)propanamide], with 5.36.
Turning to `Cc1nc(-c2ccc3ccnc(NCCC(=O)Nc4ncc(C(C)(C)C)s4)c3c2)no1` [Example 80, N-(5-(tert-butyl)thiazol-2-yl)-3-((7-(5-methyl-1,2,4-oxadiazol-3-yl)isoquinolin-1-yl)amino)propanamide], the negative-log IC50 (pIC50) is 6.70.
Regarding `CCc1nc(NC(=O)CCNc2nccc3ccc(-c4noc(C)n4)cc23)sc1C(C)(C)C` [Example 81, N-(5-(tert-butyl)-4-ethylthiazol-2-yl)-3-((7-(5-methyl-1,2,4-oxadiazol-3-yl)isoquinolin-1-yl)amino)propanamide], the pIC50 is 7.68.
For the compound `Cc1nc(-c2ccc3ccnc(NCCC(=O)Nc4cc(C(C)(C)C)n(C)n4)c3c2)no1` [Example 82, N-(5-(tert-butyl)-1-methyl-1 H-pyrazol-3-yl)-3-((7-(5-methyl-1,2,4-oxadiazol-3-yl)isoquinolin-1-yl)amino)propanamide], the pIC50 is 5.83.
Then `COC1(c2sc(NC(=O)CCNc3nccc4ccc(-c5noc(C)n5)cc34)nc2C)COC1` [Example 83, N-[5-(3-methoxyoxetan-3-yl)-4-methyl-thiazol-2-yl]-3-[[7-(5-methyl-1,2,4-oxadiazol-3-yl)-1-isoquinolyl]amino]propanamide], with 5.78; and `CCCOC1(c2sc(NC(=O)CCNc3nccc4ccc(-c5noc(C)n5)cc34)nc2C)COC1` [Example 84], with 7.24; and `CCCN(C)C(=O)c1sc(NC(=O)CCNc2nccc3ccc(-c4noc(C)n4)cc23)nc1C` [Example 85, N,4-dimethyl-2-[3-[[7-(5-methyl-1,2,4-oxadiazol-3-yl)-1-isoquinolyl]amino]propanoylamino]-N-propyl-thiazole-5-carboxamide], with 5.76.
Then `Cc1nc(-c2ccc3ccnc(NCCC(=O)Nc4ncc(C5=CCCCC5)s4)c3c2)no1` [Example 86], with 6.07; and `COC1(c2cnc(NC(=O)CCNc3nccc4ccc(-c5noc(C)n5)cc34)s2)CCCCC1` [Example 87], with 5.03.
